Data set [1] in a line: Clinical drug-drug interaction study: plasma pharmacokinetics of dextromethorphan and dextrorphan with and without emvododstat. The class given is in vivo, human. The note with it: for CL/F: dextromethorphan; for Tmax: median (range). The protocol:
(§1) On day 1, 18 healthy subjects (ages ≥ 18 and ≤ 65 years) received a single oral dose of 30 mg (capsule) dextromethorphan followed by a 4-day washout period. On day 5, subjects received a single oral dose of 250 mg emvododstat with food. Two hours later, subjects were administered a single oral dose of 30 mg modified-release dextromethorphan.
Blood samples (3 mL) for dextromethorphan and dextrorphan assessments were collected in K2EDTA vacutainers on day 1 (dextromethorphan alone) and on day 5 (dextromethorphan in combination with emvododstat) at the following timepoints: 0- (predose), 0.5-, 1-, 2-, 3-, 4-, 5-, 6-, 8-, 12-, 24-, and 48-h post dextromethorphan dose. Within 120 min of collection of blood samples, plasma was harvested by centrifuging blood samples at 2000 ± 20 g for 10 min at 4 °C. Upon harvesting, plasma was transferred to 2-mL polypropylene tubes and immediately stored at – 20 ± 5 °C until analysis.
Concentrations of dextromethorphan and dextrorphan in human plasma samples were determined using high-performance liquid chromatography with tandem mass […] (LC-MS/MS) detection. The bioanalytical method was validated, and its performance during bioanalysis was within the limits specified in current regulatory guidance over a calibration range of 50 to 50,000 pg/mL. Validation included testing such as linearity, sensitivity, specificity, selectivity, accuracy and precision, dilution effects, recovery, ruggedness, and stability.
Briefly, dextromethorphan and dextrorphan were extracted from 0.2 mL of human K2EDTA plasma using an automated liquid–liquid extraction followed by detection using LC-MS/MS. Stable isotope labeled internal standard (dextromethorphan-d3 and dextrorphan-d3) was used to track the analytes potential variability. To 0.2 mL of plasma, the internal standard (IS) working solution diluted in an ammonium formate/ammonium hydroxide buffer solution was added. The analytes and ISs were extracted using methyl-tert-butyl-ether (MTBE). A portion of the upper layer was transferred to a 96 deep well collection plate using an automated liquid handling system. After evaporation to dryness, the dry residue was reconstituted with the mobile phase and injected on a Sciex API 4000. The chromatographic separation was performed in isocratic mode using BetaSil CN column (dimensions 50 × 4.6 mm, 5 μm) and methanol/Milli-Q type water with ammonium formate and formic acid as mobile phase. The mass spectrometer detection was performed in positive ion mode with multiple reaction monitoring (MRM) transitions of 272.2 → 215.3, 275.2 → 215.3, 258.2 → 201.2, and 261.2 → 157.2 for dextromethorphan, dextromethorphan-d3, dextrorphan, and dextrorphan-d3, respectively.
Dextromethorphan and dextrorphan concentrations in study plasma samples were determined using duplicate plasma calibration curves of dextromethorphan and dextrorphan in each analytical batch. Additionally, duplicate quality control plasma samples spiked with dextromethorphan and dextrorphan at four concentration levels (low, 150 pg/mL; intermediate, 2000 pg/mL; medium, 25,000 pg/mL; and high, […]) were included in each analytical batch to assess the assay performance of the bioanalytical method. The accuracy (%bias) of QC samples in all analytical batches was within ± 4.6%, and precision (%coefficient of variation) was less than 6.2% for dextromethorphan and dextrorphan.
Non-compartmental pharmacokinetics were performed using Phoenix® WinNonlin (Version 8.1, Certara, Princeton, NJ, USA). Primary parameters consisted of AUC0-last, AUC0-inf, and Cmax. Secondary parameters included T1/2, Tmax, and CL/F (drug clearance). Bioavailability assessments were calculated using SAS software (Version 9.4, SAS, Cary, NC, USA) in accordance with current regulatory guidelines. A mixed linear model was fitted on log-transformed AUC0-inf, AUC0-t, and Cmax for both parent and metabolite. […]

Data set [2] can be described thus: Safety and tolerability in healthy subjects. The conditions noted are these: single doses of dextromethorphan 30 mg with and without emvododstat 250 mg, 18 healthy subjects. It counts as in vivo, human. The source says: The safety and tolerability of dextromethorphan alone and with emvododstat were monitored.
Data set [3] relates to human bone marrow progenitor cells. The note with it: cultured human bone marrow progenitor cells; cited from earlier work.
The conditions of data set [4]: rats dosed for up to 28 days; cited from earlier work.
In data set [5] the test system is SARS-CoV-2. Further details: method as in PMID 33249060. The note with it: SARS-CoV-2019, cell culture, cited from earlier work.
The conditions of data set [6]: dogs dosed for up to 28 days; cited from earlier work.
The target of data set [7] is T1, CYP2D6 (Homo sapiens, UniProt P10635). The experiment in a line: Clinical drug-drug interaction study: in vivo CYP2D6 inhibition with dextromethorphan as probe substrate. More on the design: On day 1, 18 healthy subjects (ages ≥ 18 and ≤ 65 years) received a single oral dose of 30 mg (capsule) dextromethorphan; from tissue; host or cells: Healthy human subjects in vivo; The enzyme is their own. The conditions noted are these: single oral dose 250 mg emvododstat, dextromethorphan as sensitive probe substrate, healthy subjects. The protocol:
as §1
Non-compartmental pharmacokinetics were performed using Phoenix® WinNonlin (Version 8.1, Certara, Princeton, NJ, USA). Primary parameters consisted of AUC0-last, AUC0-inf, and Cmax. Secondary parameters included T1/2, Tmax, and CL/F (drug clearance). Bioavailability assessments were calculated using SAS software (Version 9.4, SAS, Cary, NC, USA) in accordance with current regulatory guidelines. A mixed linear model was fitted on log-transformed AUC0-inf, AUC0-t, and Cmax for both parent and metabolite. The model included terms for treatment (combined emvododstat + dextromethorphan as test treatment versus dextromethorphan as reference treatment) and subject as a random factor. LSM (geometric least squares mean) for the treatment ratio and 90% confidence intervals (90% CI) were estimated from the model.

For data set [8], the target named is T1, CYP2D6. More on the design: method as in PMID 34846990. The conditions noted are these: cited from earlier work.
The conditions of data set [9]: humans; cited from earlier work.
[10] abbreviates: dextromethorphan with emvododstat vs alone.
The mark [11] stands for this setting: dextrorphan in plasma after 30 mg dextromethorphan alone, geometric mean (%CV).
The mark [12] stands for this setting: dextrorphan in plasma after 30 mg dextromethorphan with 250 mg emvododstat, geometric mean (%CV).

Values joined by “and” are separate entries in the source; they are usually repeats but may differ in a detail not shown here. Equal values may be shown once. Read-outs that look alike come from different tables or passages of the source. Marks after values point to notes of the source that are not given here.

T1 sequence (P10635 whole entry): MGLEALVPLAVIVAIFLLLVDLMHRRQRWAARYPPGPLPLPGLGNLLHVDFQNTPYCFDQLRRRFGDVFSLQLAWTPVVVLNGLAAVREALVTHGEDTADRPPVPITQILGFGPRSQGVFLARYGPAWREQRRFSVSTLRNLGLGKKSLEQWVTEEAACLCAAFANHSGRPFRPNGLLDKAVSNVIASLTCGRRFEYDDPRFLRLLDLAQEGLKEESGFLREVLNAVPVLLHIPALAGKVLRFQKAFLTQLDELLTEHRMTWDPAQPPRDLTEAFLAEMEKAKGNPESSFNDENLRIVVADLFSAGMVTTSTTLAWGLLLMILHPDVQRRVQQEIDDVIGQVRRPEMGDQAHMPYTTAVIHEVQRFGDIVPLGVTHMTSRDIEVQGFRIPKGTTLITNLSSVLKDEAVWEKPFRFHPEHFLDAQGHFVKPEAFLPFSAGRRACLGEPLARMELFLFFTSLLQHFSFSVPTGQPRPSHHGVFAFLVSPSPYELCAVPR

Consider `COc1ccc2c(c1)[C@]13CCCC[C@@H]1[C@H](C2)N(C)CC3` [Dextromethorphan, dextromethorphan, reference compound], for which the T1/2 in [1] (dextromethorphan in plasma, 30 mg dextromethorphan with 250 mg emvododstat (day 5), geometric mean (%CV), n = 16) is recorded as 41.4^b (39.2) h; in data set [1] (dextromethorphan in plasma, 30 mg oral dextromethorphan alone (day 1), geometric mean (%CV)), 9.15 (25.2) h. Also, the “Increase in T1/2” value in data set [1] (setting [10]) is reported as 32 h. In addition, the “Reduction in clearance (CL/F)” value in [1] (setting [10]) is recorded as 94%. Further, the CL/F in data set [1] (30 mg dextromethorphan with 250 mg emvododstat (day 5), geometric mean (%CV), n = 16) is given as 81.5^b (117.0) L/h; in data set [1] (30 mg oral dextromethorphan alone (day 1), geometric mean (%CV)) it was 1367 (176.7) L/h. In addition, the AUC(0-t) in data set [1] (human, oral, dextromethorphan in plasma, 30 mg dextromethorphan with 250 mg emvododstat (day 5), geometric mean (%CV)) is 157 ng·h/mL; in data set [1] (human, dextromethorphan in plasma, 30 mg oral dextromethorphan alone (day 1), geometric mean (%CV)), 18.8 ng·h/mL. Besides, the AUC(0-inf) in data set [1] (human, oral, dextromethorphan in plasma, 30 mg dextromethorphan with 250 mg emvododstat (day 5), geometric mean (%CV), n = 16, read-out: AUC0-inf) amounted to 362 ng·h/mL; in data set [1] (human, dextromethorphan in plasma, 30 mg oral dextromethorphan alone (day 1), geometric mean (%CV), read-out: AUC0-inf), 21.6 ng·h/mL. Also, the Tmax turned out to be 4 h in [1] (human, oral, dextromethorphan in plasma, 30 mg dextromethorphan with 250 mg emvododstat (day 5), read-out: Tmax) and 4 h in [1] (human, dextromethorphan in plasma, 30 mg oral dextromethorphan alone (day 1), read-out: Tmax). Also, the half-life is 41 h in [1] (human, plasma, oral, dextromethorphan in plasma, 30 mg dextromethorphan with 250 mg emvododstat (day 5), geometric mean (%CV), n = 16, read-out: T1/2 (converted)) and 9 h in [1] (human, plasma, po, 30 mg, dextromethorphan in plasma, 30 mg oral dextromethorphan alone (day 1), geometric mean (%CV), read-out: T1/2 (converted)). The Cmax in [1] (human, dextromethorphan in plasma, 30 mg dextromethorphan 2 h after 250 mg oral emvododstat (day 5), geometric mean (%CV)) was 5.85 ng/mL; in data set [1] (human, dextromethorphan in plasma, 30 mg oral dextromethorphan alone (day 1), healthy subjects, geometric mean (%CV)) it was 2.01 ng/mL. The Drug-related adverse effects entry in [2] is “mild and reversible”.

`CN1CC[C@@]23CCCC[C@@H]2[C@@H]1Cc1ccc(O)cc13` [Dextrorphan, dextrorphan]: the “Geometric mean metabolite/parent ratio for AUC (dextrorphan/dextromethorphan)” value was 0.182 and 0.18 in data set [1] (dextromethorphan in the presence of emvododstat); 1.69 in data set [1] (prior to administration of emvododstat). Also, the values for the AUC0-last in data set [1] (setting [11]) and in data set [1] (setting [12]) were 31,852 (45.7) h·pg/mL and 29,382 (40.7) h·pg/mL, respectively. Moreover, the AUC(0-inf) is 33,194 (43.8) h·pg/mL in [1] (setting [11]); 30,875 (38.8) h·pg/mL in data set [1] (setting [12]); 33.2 ng·h/mL in [1] (human, plasma, oral, dextrorphan, 30 mg dextromethorphan capsules alone, read-out: AUC0-inf); 30.9 ng·h/mL in data set [1] (human, plasma, oral, dextrorphan, dextromethorphan given concurrently with emvododstat, read-out: AUC0-inf). The Tmax in data set [1] (dextrorphan in plasma after 30 mg dextromethorphan with 250 mg emvododstat) is recorded as 4 (1–4) h. For the same molecule, in [1] (dextrorphan, Cmax LSM ratio just inside, 90% CIs outside of the no effect range 0.80 to 1.25), the “Effect of CYP2D6 inhibition on peak exposure (Cmax)” value is recorded as “slightly affected”. Moreover, the Cmax in data set [1] (human, oral, dextrorphan in plasma after 30 mg dextromethorphan alone, geometric mean (%CV)) was 5 ng/mL; in [1] (human, oral, dextrorphan in plasma after 30 mg dextromethorphan with 250 mg emvododstat, geometric mean (%CV)) it was 4.05 ng/mL. In addition, the half-life in [1] (human, plasma, oral, 30 mg, dextrorphan in plasma after 30 mg dextromethorphan alone, geometric mean (%CV), read-out: T1/2 (converted)) was 5.86 h; in [1] (human, plasma, oral, dextrorphan in plasma after 30 mg dextromethorphan with 250 mg emvododstat, geometric mean (%CV), read-out: T1/2 (converted)), 8.41 h; in data set [1] (human, plasma, oral, dextrorphan, alone and in combination with emvododstat, read-out: Effective T1/2) it was 6 to 8 h. Also, the AUC(0-t) in [1] (human, plasma, oral, dextrorphan, 30 mg dextromethorphan capsules alone) is 31.9 ng·h/mL; in data set [1] (human, plasma, oral, dextrorphan, dextromethorphan given concurrently with emvododstat), 29.4 ng·h/mL.

With `COc1ccc(C2c3[nH]c4ccc(Cl)cc4c3CCN2C(=O)Oc2ccc(Cl)cc2)cc1` (stereo not shown) [Emvododstat, 4-chlorophenyl 6-chloro-1-[4-methoxyphenyl]-1,3,4,9-tetrahydro-2H-pyrido[3,4-b]indole-2-carboxylate], in [3], the “Effect on viability or proliferation” value is listed as “does not impair”. The Myelotoxicity result in [4], in data set [6] and in data set [9] was “no evidence of myelotoxicity” throughout. Also, the EC50 in [5] (read-out: EC50, decreased capsid protein) was 0.00196 µM; in data set [5] (read-out: EC50, decreased viral titer), 0.0026 µM. Also, the EC90 in data set [5] (read-out: EC90, decreased viral titer) is 0.053 µM. In addition, the “In vivo CYP2D6 inhibitor classification” value in [7] is “strong inhibitor of CYP2D6 activity”. In addition, the Ki in data set [8] (human liver microsomes, non-competitive inhibitor, read-out: Inhibition constant (Ki) for CYP2D6) was 0.038 µM and 0.0377 µM. The 50% inhibitory concentration (IC50) in data set [8] (in vitro) was 0.017 µM. The Drug-related adverse effects entry in data set [2] was “mild and reversible”.

Consider `O=C(Oc1ccc(Cl)cc1)N1CCc2c([nH]c3ccc(Cl)cc23)C1c1ccc(O)cc1` (stereo not shown) [O-desmethyl emvododstat], for which, in data set [8] (in vitro, compared with emvododstat), the “Inhibition of CYP2D6 activity (in words)” value is “to a lesser extent”.

Broadly, the AUC(0-t) is exposure summed from dosing to a finite time, without extrapolation to infinity. What is called Cmax is the maximum level reached in the sampled fluid or tissue. By EC50 is commonly meant the concentration needed to bring the measured effect to its halfway point. By EC90 is commonly meant the concentration needed for an effect of 90%. Broadly, the Ki is a measure of affinity in units of concentration, obtained from inhibition or displacement. As usually defined, the IC50 is the concentration needed to halve the response being measured.

Source of the values: PMC10243242 (European Journal of Clinical Pharmacology, 2023).
